Experimental data from patent US9518061B2, “Substituted pyrazolylpyrazole derivative and use of same as herbicide” (KYOYU AGRI CO., LTD., priority 2013, dated 2016).

Assays:
Echinochloa crus-galli = assay: Paddy herbicidal activity test; type: in vivo; conditions: irrigated paddy pot, treated at 3.5 leaf stage of Echinochloa crus-galli, 30 days
Procedure, shortened: (§1)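 Flooded paddy-soil pots (3 cm water) seeded with weeds; rice at 2.0-leaf stage transplanted when Echinochloa reached 3.5-leaf stage, then diluted wettable powder dropped in at set rate per are. After 30 days in greenhouse (avg 30° C), growth inhibition (%) scored on 11-level scale vs untreated (efficacy) or complete-kill group (phytotoxicity).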

Monochoria vaginalis = assay: Paddy herbicidal activity test; type: in vivo; conditions: irrigated paddy pot, 30 days
Procedure, shortened: as §1

Scirpus juncoides = assay: Paddy herbicidal activity test; type: in vivo; conditions: irrigated paddy pot, 30 days
Procedure, shortened: as §1

Rice plants = assay: Paddy herbicidal activity test, phytotoxicity to transplanted rice; type: in vivo; conditions: rice transplanted in 2.0 leaf stage, 30 days
Procedure, shortened: as §1

Amaranthus retroflexus [1] = assay: Farming soil treatment test; type: in vivo; conditions: soil surface spray prior to weed growth, 30 days
Method: (§2) 2. Farming Soil Treatment Test
(§3) Field soil was filled into a 1/6000 are pot followed by seeding with Digitaria ciliaris, Chenopodium album and Amaranthus retroflexus and covering with soil.
(§4) Wettable powder of compounds of formula (D shown in Table 1 prepared in compliance with the preparation examples were diluted with water to the prescribed amount of chemical and uniformly sprayed onto each soil surface layer using 10 liters of sprayed water per are prior to weed growth following seeding.
(§5) After treating for 30 days in a glass greenhouse at an average atmospheric temperature of 30° C., the herbicidal efficacy thereof was investigated.
(§6) Evaluation of herbicidal efficacy was carried out in the same manner as the above-mentioned Test Example 1.

Chenopodium album [2] = assay: Farming soil treatment test; type: in vivo; conditions: soil surface spray prior to weed growth, 30 days
Method: as §2, §3, §4, §5, §6

Digitaria ciliaris [3] = assay: Farming soil treatment test; type: in vivo; conditions: soil surface spray prior to weed growth, 30 days
Method: as §2, §3, §4, §5, §6

Amaranthus retroflexus [4] = assay: Weed foliar treatment test; type: in vivo; conditions: foliar spray, 3 weeks
Method: (§7) 3. Weed Foliar Treatment Test
(§8) Soil was filled into a 1/6000 are pot followed by seeding with Digitaria ciliaris, Chenopodium album and Amaranthus retroflexus, covering with soil, and cultivating in a glass greenhouse at an average atmospheric temperature of 25° C.
(§9) Wettable powder of Target Compound (I) shown in Table 1 prepared in compliance with the preparation examples were diluted with water to the prescribed amount of chemical and uniformly sprayed onto the weeds using 15 liters of sprayed water per are when Digitaria ciliaris had grown to the 1.0 to 2.0 leaf stage.
(§10) After treating for 3 weeks in a glass greenhouse at an average atmospheric temperature of 25° C., the herbicidal efficacy thereof was investigated.
as §6

Chenopodium album [5] = assay: Weed foliar treatment test; type: in vivo; conditions: foliar spray, 3 weeks
Method: as §7, §8, §9, §10, §6

Digitaria ciliaris [6] = assay: Weed foliar treatment test; type: in vivo; conditions: foliar spray at 1.0 to 2.0 leaf stage of Digitaria ciliaris, 3 weeks
Method: as §7, §8, §9, §10, §6

N#Cc1cnn(-c2nn3c(c2Cl)CCCC3)c1N(CCCl)C(=O)C(F)(F)F [Compound 1, N-(2-chloroethyl)-N-(1-(3-chloro-4,5,6,7-tetrahydropyrazolo[1,5-a]pyridin-2-yl)-4-cyanopyrazol-5-yl)-2,2,2-trifluoroacetamide]
herbicidal efficacy (growth inhibition rate level) Echinochloa crus-galli (Echinochloa crus-galli; 1g a.i./10a): 9 (90% to less than 100%)
herbicidal efficacy (growth inhibition rate level) Echinochloa crus-galli (Echinochloa crus-galli; 5g a.i./10a): 10 (100%)
herbicidal efficacy (growth inhibition rate level) Monochoria vaginalis (Monochoria vaginalis; 1g a.i./10a): 8 (80% to less than 90%)
herbicidal efficacy (growth inhibition rate level) Monochoria vaginalis (Monochoria vaginalis; 5g a.i./10a): 9 (90% to less than 100%)
herbicidal efficacy (growth inhibition rate level) Scirpus juncoides (Scirpus juncoides; 1g a.i./10a): 9 (90% to less than 100%)
herbicidal efficacy (growth inhibition rate level) Scirpus juncoides (Scirpus juncoides; 5g a.i./10a): 10 (100%)
phytotoxicity (growth inhibition rate level) Rice plants (Rice plants; 1g a.i./10a): 0 (0 (exponent): 0% to less than 10% (growth inhibition rate))
phytotoxicity (growth inhibition rate level) Rice plants (Rice plants; 5g a.i./10a): 1 (10% to less than 20%)
herbicidal efficacy (growth inhibition rate level) Amaranthus retroflexus (Amaranthus retroflexus [1]; 5g a.i./10a): 10 (100%)
herbicidal efficacy (growth inhibition rate level) Amaranthus retroflexus (Amaranthus retroflexus [1]; 10g a.i./10a): 10 (100%)
herbicidal efficacy (growth inhibition rate level) Chenopodium album (Chenopodium album [2]; 5g a.i./10a): 10 (100%)
herbicidal efficacy (growth inhibition rate level) Chenopodium album (Chenopodium album [2]; 10g a.i./10a): 10 (100%)
herbicidal efficacy (growth inhibition rate level) Digitaria ciliaris (Digitaria ciliaris [3]; 5g a.i./10a): 10 (100%)
herbicidal efficacy (growth inhibition rate level) Digitaria ciliaris (Digitaria ciliaris [3]; 10g a.i./10a): 10 (100%)
herbicidal efficacy (growth inhibition rate level) Amaranthus retroflexus (Amaranthus retroflexus [4]; 5g a.i./10a): 10 (100%)
herbicidal efficacy (growth inhibition rate level) Amaranthus retroflexus (Amaranthus retroflexus [4]; 10g a.i./10a): 10 (100%)
herbicidal efficacy (growth inhibition rate level) Chenopodium album (Chenopodium album [5]; 5g a.i./10a): 10 (100%)
herbicidal efficacy (growth inhibition rate level) Chenopodium album (Chenopodium album [5]; 10g a.i./10a): 10 (100%)
herbicidal efficacy (growth inhibition rate level) Digitaria ciliaris (Digitaria ciliaris [6]; 5g a.i./10a): 10 (100%)
herbicidal efficacy (growth inhibition rate level) Digitaria ciliaris (Digitaria ciliaris [6]; 10g a.i./10a): 10 (100%)
melting point: 87 to 89 °C
